Assay results as given in patent US20030099613A1, “Viral replicons and viruses dependent on inducing agents” (priority 1999, published 2003).

Tested on: dox-dependent SWS virus
Test: Sensitivity of HIV-rtTA (SWS) replication to antiretroviral drugs in SupT1 cells
Type: cell-based, HIV-1
Details: infected SupT1 cells maintained in the presence of dox
Protocol: FIG. 4. Replication of HIV-rtTA can be turned on and turned off. These experiments were performed with the SWS virus, but similar results have been obtained with the other HIV-rtTA variants. The SWS virus was used (2200 ng CA-p24) to infect 6×10^6 SupT1 cells at day 0. […] In panel B, the effect of delayed addition of dox (1000 ng/ml) was analyzed at day 3 after infection. In panel C, the infected cells were grown in 1000 ng/ml dox for 3 days, at which point the cells were washed and incubated in the absence or presence of dox. In panel D, infected cells were maintained in the presence of dox and the effect of the Protease-inhibitor Saquinavir (200 nM) and the RT-inhibitor AZT ([…]) was tested.
As an additional safety test, the sensitivity of the HIV-rtTA virus to antiretroviral drugs that are in current clinical use was analyzed. Because the basic set of viral genes in HIV-rtTA was not altered, including the genes encoding Protease (Pro) and Reverse Transcriptase (RT), these viruses are expected to remain fully sensitive to well-known drugs that target these essential enzymes.

Compound | inhibition of SWS virus replication (AZT 1 μg) | inhibition of SWS virus replication (Saquinavir 200 nM)
Cc1cn([C@H]2C[C@H](N=[N+]=[N-])[C@@H](CO)O2)c(=O)[nH]c1=O [AZT, 3′-azido, 3′-deoxythymidine] | inhibited efficiently | 
CC(C)(C)NC(=O)[C@@H]1C[C@@H]2CCCC[C@@H]2CN1C[C@@H](O)[C@H](Cc1ccccc1)NC(=O)[C@H](CC(N)=O)NC(=O)c1ccc2ccccc2n1 [Saquinavir] |  | inhibited efficiently
